The text below walks through data of patent publication US20190367516A1 (Bayer Pharma Aktiengesellschaft, priority 2015, published 2019).

Each structure is given as a SMILES string. Like-named read-outs stand apart in the source and are kept apart here.

The assay concerns the target T1, human M2 receptor (Homo sapiens, UniProt P08172).
T1 sequence (P08172 1-466): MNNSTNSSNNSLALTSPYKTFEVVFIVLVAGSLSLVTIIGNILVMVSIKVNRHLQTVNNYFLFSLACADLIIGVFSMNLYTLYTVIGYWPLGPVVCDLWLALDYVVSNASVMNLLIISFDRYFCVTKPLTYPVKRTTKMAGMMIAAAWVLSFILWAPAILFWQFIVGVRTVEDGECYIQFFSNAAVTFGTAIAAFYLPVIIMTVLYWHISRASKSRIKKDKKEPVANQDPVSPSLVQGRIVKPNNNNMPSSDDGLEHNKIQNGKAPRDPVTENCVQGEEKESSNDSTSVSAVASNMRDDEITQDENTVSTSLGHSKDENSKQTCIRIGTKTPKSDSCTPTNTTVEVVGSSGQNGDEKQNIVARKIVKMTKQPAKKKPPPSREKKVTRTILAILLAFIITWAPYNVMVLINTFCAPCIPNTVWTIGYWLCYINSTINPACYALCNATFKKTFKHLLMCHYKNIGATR
The following applies: for Emax: read-out: Efficiency, boosting of the acetylcholine effect at EC20 acetylcholine concentration.

Where [1] appears, read: Receptor activity EC50, allosteric potency at EC20 acetylcholine, M2-GIRK1/4 reporter cells, in some cases mean of two or more determinations.
Setting [2] is: Receptor activity EC50, M2-GIRK1/4 activation test, acetylcholine at EC20, allosteric potency, in some cases mean values from two or more determinations.

The EC50 is the midpoint of the concentration-response curve.

`O=C(N[C@@H](C1CC1)C(F)(F)F)c1cn(-c2c(F)cc(F)cc2F)c2nc(N(CCO)CCO)ccc2c1=O` [Example 664, 7-[Bis(2-hydroxyethyl)amino]-N-[(1S)-1-cyclopropyl-2,2,2-trifluoroethyl]-4-oxo-1-(2,4,6-trifluorophenyl)-1,4-dihydro-1,8-naphthyridine-3-carboxamide]: the EC50 under setting [1] was found to be 100 nM. Under “M2-GIRK1/4 reporter cells”, the Emax came to 98%. The corresponding values for `CC1(O)CCCN(c2ccc3c(=O)c(C(=O)N[C@@H](C4CC4)C(F)(F)F)cn(-c4c(F)cc(F)cc4F)c3n2)C1` (some centres unmarked) [Example 665, N-[(1 S)-1-Cyclopropyl-2,2,2-trifluoroethyl]-7-[3-hydroxy-3-methylpiperidin-1-yl]-4-oxo-1-(2,4,6-trifluorophenyl)-1,4-dihydro-1,8-naphthyridine-3-carboxamide] are 73 nM and 92.5%. In the same order, the values of `O=C(N[C@@H](C1CC1)C(F)(F)F)c1cn(-c2c(F)cc(F)cc2F)c2nc(N3C[C@@H](C(=O)O)OC3=O)ccc2c1=O` [Example 667, (5S)-3-[6-{[(1S)-1-Cyclopropyl-2,2,2-trifluoroethyl]carbamoyl}-5-oxo-8-(2,4,6-trifluorophenyl)-5,8-dihydro-1,8-naphthyridin-2-yl]-2-oxo-1,3-oxazolidine-5-carboxylic acid] are 3850 nM and 100%. `NC(=O)[C@@H]1CN(c2ccc3c(=O)c(C(=O)N[C@@H](C4CC4)C(F)(F)F)cn(-c4c(F)cc(F)cc4F)c3n2)C(=O)O1` [Example 668, 7-[(5S)-5-Carbamoyl-2-oxo-1,3-oxazolidin-3-yl]-N-[(1 S)-1-cyclopropyl-2,2,2-trifluoroethyl]-4-oxo-1-(2,4,6-trifluorophenyl)-1,4-dihydro-1,8-naphthyridine-3-carboxamide] showed an EC50 under setting [1] of 89 nM. In addition, for the setting “M2-GIRK1/4 reporter cells”, the Emax turned out to be 100%. `COC(=O)[C@H]1CN(c2ccc3c(=O)c(C(=O)N[C@@H](C4CC4)C(F)(F)F)cn(-c4c(F)cc(F)cc4F)c3n2)C(=O)O1` [Example 669, Methyl (5R)-3-[6-{[(1S)-1-cyclopropyl-2,2,2-trifluoroethyl]carbamoyl}-5-oxo-8-(2,4,6-trifluorophenyl)-5,8-dihydro-1,8-naphthyridin-2-yl]-2-oxo-1,3-oxazolidine-5-carboxylate]: under setting [1], the 50% effective concentration (EC50) came out at 106 nM. The Emax (M2-GIRK1/4 reporter cells) is 84.9%. The corresponding values for `O=C(N[C@@H](C1CC1)C(F)(F)F)c1cn(-c2c(F)cc(F)cc2F)c2nc(N3C[C@H](C(=O)O)OC3=O)ccc2c1=O` [Example 670, (5R)-3-[6-{[(1S)-1-Cyclopropyl-2,2,2-trifluoroethyl]carbamoyl}-5-oxo-8-(2,4,6-trifluorophenyl)-5,8-dihydro-1,8-naphthyridin-2-yl]-2-oxo-1,3-oxazolidine-5-carboxylic acid] are 1450 nM and 66.5%.

Under setting [1], `NC(=O)[C@H]1CN(c2ccc3c(=O)c(C(=O)N[C@@H](C4CC4)C(F)(F)F)cn(-c4c(F)cc(F)cc4F)c3n2)C(=O)O1` [Example 671, 7-[(5R)-5-Carbamoyl-2-oxo-1,3-oxazolidin-3-yl]-N-[(15)-1-cyclopropyl-2,2,2-trifluoroethyl]-4-oxo-1-(2,4,6-trifluorophenyl)-1,4-dihydro-1,8-naphthyridine-3-carboxamide] came in with a half-maximal effective concentration (EC50) of 100 nM. In addition, the Emax (M2-GIRK1/4 reporter cells) worked out at 94%. Take `CC(C)Nc1ccc2c(=O)c(C(=O)NC34CCC(CC3)CC4)cn(-c3ccc(F)cc3F)c2n1` [compound 159]: the 50% effective concentration (EC50) under setting [2] was 117 nM. For `O=C(NCc1c(Cl)cccc1Cl)c1cn(-c2ccc(F)cc2F)c2nc(N3CC(O)CC3=O)ccc2c1=O` (centres unmarked) [compound 183], the response under setting [2] was half-maximal at 166 nM (EC50). The same measure, in the same setting: the value for `CC(C)(NC(=O)c1cn(-c2ccc(F)cc2F)c2nc(N3CCCS3(=O)=O)ccc2c1=O)c1c(F)cccc1F` [compound 185] was 156 nM.
